Molecular target: Mtb ATP synthase (Mycobacterium tuberculosis, UniProt P9WPS1+P9WPV7)
Assay: biochemical
Type: binding

COc1nc2ccc(Br)cc2cc1[C@@H](c1ccccc1)[C@@](O)(CCN(C)C)c1cccc2ccccc12 [bedaquiline]
Kd: 36.5 µM
